From the NIST ThermoML archive (doi:10.1016/j.jct.2008.05.005)

Test: xn = mol fraction of the nth substance listed
Details: Liquid, Vibrating tube method

CCCCn1cc[n+](C)c1.F[B-](F)(F)F [1-butyl-3-methylimidazolium tetrafluoroborate] + CO
Details	mass density [kg/m3]
348.15 K, 20140 kPa, x1 = 0.9102	1177.87
348.15 K, 20370 kPa, x1 = 0.1302	949.49
348.15 K, 20420 kPa, x1 = 0.2626	1040.92
348.15 K, 20440 kPa, x1 = 0.0087	779.62
348.15 K, 25180 kPa, x1 = 0.0433	846.4
348.15 K, 25270 kPa, x1 = 0.1302	953.3
348.15 K, 25310 kPa, x1 = 0.2626	1044.36
348.15 K, 25310 kPa, x1 = 0.4988	1122.86
348.15 K, 25320 kPa, x1 = 0.0087	784.47
348.15 K, 25620 kPa, x1 = 0.7501	1164.19
348.15 K, 25620 kPa, x1 = 0.9102	1180.73
348.15 K, 30070 kPa, x1 = 0.7501	1166.56
348.15 K, 30090 kPa, x1 = 0.4988	1125.66
348.15 K, 30140 kPa, x1 = 0.9102	1183.03
348.15 K, 30150 kPa, x1 = 0.0087	789.02
348.15 K, 30160 kPa, x1 = 0.0433	850.67
348.15 K, 30210 kPa, x1 = 0.2626	1047.7
348.15 K, 30560 kPa, x1 = 0.1302	957.16
348.15 K, 35010 kPa, x1 = 0.7501	1169.13
348.15 K, 35080 kPa, x1 = 0.2626	1050.92
348.15 K, 35120 kPa, x1 = 0.0087	793.42
348.15 K, 35260 kPa, x1 = 0.4988	1128.6
348.15 K, 35420 kPa, x1 = 0.1302	960.46
348.15 K, 35740 kPa, x1 = 0.0433	855.14
348.15 K, 35740 kPa, x1 = 0.9102	1185.8
348.15 K, 39640 kPa, x1 = 0.0087	797.19
348.15 K, 39720 kPa, x1 = 0.1302	963.19
348.15 K, 39920 kPa, x1 = 0.2626	1054.02
348.15 K, 39920 kPa, x1 = 0.4988	1131.18
348.15 K, 39980 kPa, x1 = 0.9102	1187.84
348.15 K, 39990 kPa, x1 = 0.7501	1171.65
348.15 K, 40010 kPa, x1 = 0.0433	858.32
373.15 K, 620 kPa, x1 = 0.0433	797.86
373.15 K, 620 kPa, x1 = 0.9102	1149.53
373.15 K, 680 kPa, x1 = 0.0087	731.31
373.15 K, 840 kPa, x1 = 0.1302	910.67
373.15 K, 840 kPa, x1 = 0.7501	1131.82
373.15 K, 880 kPa, x1 = 0.4988	1088.22
373.15 K, 960 kPa, x1 = 0.2626	1006.13
373.15 K, 5010 kPa, x1 = 0.7501	1134.65
373.15 K, 5320 kPa, x1 = 0.2626	1009.96
373.15 K, 5410 kPa, x1 = 0.0087	738.04
373.15 K, 5410 kPa, x1 = 0.9102	1152.54
373.15 K, 5450 kPa, x1 = 0.1302	915.31
373.15 K, 5470 kPa, x1 = 0.4988	1091.64
373.15 K, 5500 kPa, x1 = 0.0433	804.09
373.15 K, 10030 kPa, x1 = 0.9102	1155.38
373.15 K, 10070 kPa, x1 = 0.2626	1014.1
373.15 K, 10080 kPa, x1 = 0.4988	1095
373.15 K, 10280 kPa, x1 = 0.1302	919.98
373.15 K, 10320 kPa, x1 = 0.7501	1138.17
373.15 K, 10390 kPa, x1 = 0.0087	744.76
373.15 K, 10780 kPa, x1 = 0.0433	810.45
373.15 K, 15090 kPa, x1 = 0.7501	1141.24
373.15 K, 15170 kPa, x1 = 0.1302	924.53
373.15 K, 15230 kPa, x1 = 0.2626	1018.44
373.15 K, 15390 kPa, x1 = 0.0433	815.67
373.15 K, 15430 kPa, x1 = 0.4988	1098.81
373.15 K, 15450 kPa, x1 = 0.0087	751.2
373.15 K, 15720 kPa, x1 = 0.9102	1158.79
373.15 K, 20090 kPa, x1 = 0.2626	1022.37
373.15 K, 20210 kPa, x1 = 0.0433	820.81
373.15 K, 20420 kPa, x1 = 0.1302	929.19
373.15 K, 20420 kPa, x1 = 0.7501	1144.57
373.15 K, 20580 kPa, x1 = 0.0087	757.35
373.15 K, 20610 kPa, x1 = 0.4988	1102.41
373.15 K, 20610 kPa, x1 = 0.9102	1161.64
373.15 K, 24990 kPa, x1 = 0.0433	825.57
373.15 K, 25080 kPa, x1 = 0.7501	1147.41
373.15 K, 25330 kPa, x1 = 0.1302	933.36
373.15 K, 25340 kPa, x1 = 0.2626	1026.45
373.15 K, 25340 kPa, x1 = 0.4988	1105.63
373.15 K, 25580 kPa, x1 = 0.0087	762.96
373.15 K, 25830 kPa, x1 = 0.9102	1164.62
373.15 K, 29810 kPa, x1 = 0.1302	936.98
373.15 K, 30080 kPa, x1 = 0.2626	1029.97
373.15 K, 30080 kPa, x1 = 0.4988	1108.78
373.15 K, 30140 kPa, x1 = 0.9102	1167.01
373.15 K, 30410 kPa, x1 = 0.7501	1150.55
373.15 K, 30550 kPa, x1 = 0.0433	830.7
373.15 K, 30780 kPa, x1 = 0.0087	768.4
373.15 K, 34970 kPa, x1 = 0.0433	834.46
373.15 K, 35040 kPa, x1 = 0.9102	1169.67
373.15 K, 35210 kPa, x1 = 0.7501	1153.29
373.15 K, 35560 kPa, x1 = 0.1302	941.4
373.15 K, 35620 kPa, x1 = 0.2626	1033.9
373.15 K, 35640 kPa, x1 = 0.4988	1112.39
373.15 K, 35780 kPa, x1 = 0.0087	773.25
373.15 K, 39510 kPa, x1 = 0.0087	776.62
373.15 K, 39910 kPa, x1 = 0.0433	838.34
373.15 K, 39940 kPa, x1 = 0.2626	1036.83
373.15 K, 39940 kPa, x1 = 0.9102	1172.26
373.15 K, 39970 kPa, x1 = 0.4988	1115.12
373.15 K, 39980 kPa, x1 = 0.7501	1155.94
373.15 K, 40050 kPa, x1 = 0.1302	944.67
398.15 K, 870 kPa, x1 = 0.0087	702.45
398.15 K, 980 kPa, x1 = 0.7501	1114.32
398.15 K, 990 kPa, x1 = 0.4988	1069.4
398.15 K, 1020 kPa, x1 = 0.2626	985.77
398.15 K, 1030 kPa, x1 = 0.9102	1132.67
398.15 K, 1250 kPa, x1 = 0.0433	772.27
398.15 K, 2310 kPa, x1 = 0.1302	891.44
398.15 K, 5010 kPa, x1 = 0.0087	709.59
398.15 K, 5060 kPa, x1 = 0.0433	778.08
398.15 K, 5060 kPa, x1 = 0.2626	989.1
398.15 K, 5080 kPa, x1 = 0.4988	1072.6
398.15 K, 5120 kPa, x1 = 0.1302	894.51
398.15 K, 5310 kPa, x1 = 0.7501	1117.54
398.15 K, 5410 kPa, x1 = 0.9102	1135.7
398.15 K, 10030 kPa, x1 = 0.0087	717.77
398.15 K, 10030 kPa, x1 = 0.1302	899.7
398.15 K, 10120 kPa, x1 = 0.2626	994.1
398.15 K, 10250 kPa, x1 = 0.9102	1138.98
398.15 K, 10410 kPa, x1 = 0.0433	785.75
398.15 K, 10410 kPa, x1 = 0.7501	1121.25
398.15 K, 10470 kPa, x1 = 0.4988	1077.23
398.15 K, 14950 kPa, x1 = 0.0087	725.27
398.15 K, 15020 kPa, x1 = 0.1302	904.75
398.15 K, 15070 kPa, x1 = 0.0433	791.97
398.15 K, 15210 kPa, x1 = 0.4988	1081.15
398.15 K, 15360 kPa, x1 = 0.9102	1142.35
398.15 K, 15450 kPa, x1 = 0.2626	999.14
398.15 K, 15960 kPa, x1 = 0.7501	1125.17
398.15 K, 20030 kPa, x1 = 0.4988	1085
398.15 K, 20060 kPa, x1 = 0.0087	732.52
398.15 K, 20060 kPa, x1 = 0.2626	1003.34
398.15 K, 20100 kPa, x1 = 0.1302	909.67
398.15 K, 20310 kPa, x1 = 0.0433	798.45
398.15 K, 20340 kPa, x1 = 0.7501	1128.18
398.15 K, 20470 kPa, x1 = 0.9102	1145.63
398.15 K, 24980 kPa, x1 = 0.0087	738.99
398.15 K, 25010 kPa, x1 = 0.9102	1148.46
398.15 K, 25060 kPa, x1 = 0.1302	914.25
398.15 K, 25080 kPa, x1 = 0.0433	803.88
398.15 K, 25320 kPa, x1 = 0.4988	1089.05
398.15 K, 25620 kPa, x1 = 0.2626	1008.18
398.15 K, 25720 kPa, x1 = 0.7501	1131.78
398.15 K, 29970 kPa, x1 = 0.1302	918.57
398.15 K, 30080 kPa, x1 = 0.7501	1134.62
398.15 K, 30090 kPa, x1 = 0.4988	1092.57
398.15 K, 30120 kPa, x1 = 0.0087	745.21
398.15 K, 30200 kPa, x1 = 0.0433	809.19
398.15 K, 30740 kPa, x1 = 0.2626	1012.44
398.15 K, 30890 kPa, x1 = 0.9102	1152.03
398.15 K, 34960 kPa, x1 = 0.0433	813.67
398.15 K, 35040 kPa, x1 = 0.4988	1096.06
398.15 K, 35060 kPa, x1 = 0.1302	922.81
398.15 K, 35210 kPa, x1 = 0.7501	1137.87
398.15 K, 35280 kPa, x1 = 0.9102	1154.61
398.15 K, 35310 kPa, x1 = 0.0087	750.93
398.15 K, 35620 kPa, x1 = 0.2626	1016.31
398.15 K, 39740 kPa, x1 = 0.1302	926.51
398.15 K, 39920 kPa, x1 = 0.9102	1157.27
398.15 K, 39940 kPa, x1 = 0.0433	817.88
398.15 K, 39940 kPa, x1 = 0.7501	1140.77
398.15 K, 39960 kPa, x1 = 0.4988	1099.38
398.15 K, 39970 kPa, x1 = 0.0087	755.59
398.15 K, 39980 kPa, x1 = 0.2626	1019.62
